In brackets after ≈: the same amount, converted by molar mass. Read-outs that look alike come from different tables or passages of the source.
Key:
[1] = target: M. smegmatis DprE1 (DprE1/DprE2 epimerase) (Mycolicibacterium smegmatis, UniProt A0R607); assay type: biochemical
Mtb [2] = test: microbe, parasite or virus in culture; assay type: cell-based, Mycobacterium tuberculosis; details: Mycobacterium tuberculosis, read-out: MIC (II)
Mtb [3] = test: microbe, parasite or virus in culture; assay type: cell-based, Mycobacterium tuberculosis; details: for MIC: Mycobacterium tuberculosis, read-out: MIC (I)
Mtb [4] = test: microbe, parasite or virus in culture; assay type: cell-based, Mycobacterium tuberculosis; details: for MIC: Mycobacterium tuberculosis, read-out: MIC (III)
in vitro [5] = details: African green monkey
in vitro [6] = details: human
[7] = system: exponentially growing virulent Mtb; assay type: cell-based, Mycobacterium tuberculosis
[8] = system: Mtb in J744.1 murine macrophage cells; test: microbe, parasite or virus in culture; assay type: cell-based; details: Mycobacterium tuberculosis, 120 h, read-out: MIC50, intracellular CFU assay

Sequence of M. smegmatis DprE1 (DprE1/DprE2 epimerase) (A0R607 whole entry): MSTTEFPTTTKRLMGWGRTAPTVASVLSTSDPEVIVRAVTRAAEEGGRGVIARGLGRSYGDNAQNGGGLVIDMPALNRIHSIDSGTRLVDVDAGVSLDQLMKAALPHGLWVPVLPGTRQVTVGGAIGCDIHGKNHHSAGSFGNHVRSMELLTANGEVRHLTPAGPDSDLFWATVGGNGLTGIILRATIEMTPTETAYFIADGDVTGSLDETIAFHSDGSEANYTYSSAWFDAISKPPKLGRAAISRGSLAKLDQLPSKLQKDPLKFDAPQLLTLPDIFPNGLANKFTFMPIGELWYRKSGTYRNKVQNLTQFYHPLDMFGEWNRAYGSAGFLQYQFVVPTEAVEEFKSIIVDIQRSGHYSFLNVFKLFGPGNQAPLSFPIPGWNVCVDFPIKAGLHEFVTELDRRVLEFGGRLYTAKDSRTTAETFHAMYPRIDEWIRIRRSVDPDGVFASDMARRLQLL

| Structure (SMILES) | MIC (Mtb [2]) | MIC (Mtb [3]) | CC50 (in vitro [5]) | CC50 (in vitro [6]) | other results |
| --- | --- | --- | --- | --- | --- |
| C[C@H]1COC2(CCN(c3nc(=O)c4cc(C(F)(F)F)cc([N+](=O)[O-])c4s3)CC2)O1 [BTZ043] |  |  |  |  | inhibition of conversion of DPR to DPA by DprE1 [1]: potently inhibit |
| CCOC(=O)NC(=O)c1ccsc1NC(=O)c1nc2ccccc2s1 [Compound 1] | 1 to 3 µg/mL (≈ 2.66 to 7.99 µM) | 1 to 3 µg/mL (≈ 2.66 to 7.99 µM) | > 50 µg/mL | > 50 µg/mL | MIC (Mtb [4]): > 25 µg/mL |
| CCOC(=O)NC(=O)c1ccsc1NC(=O)c1cccc(NC(C)=O)c1 [Compound 3] | 1 to 3 µg/mL (≈ 2.66 to 7.99 µM) |  |  | > 50 µg/mL |  |
| CCOC(=O)NC(=O)c1ccsc1NC(=O)c1ccnc(NC(=O)OC(C)C)c1 [Compound 4] | 1 to 3 µg/mL (≈ 2.38 to 7.14 µM) |  |  | > 50 µg/mL |  |
| CCOC(=O)NC(=O)c1ccsc1NC(=O)c1ccc2sc(C)nc2c1 [Compound 10] | < 1 µg/mL | < 1 µg/mL | 25 to 50 µg/mL (≈ 64.2 to 128 µM) | > 50 µg/mL |  |
| CCOC(=O)NC(=O)c1ccsc1NC(=O)c1cc2ccccn2n1 [Compound 11] | 1 to 3 µg/mL (≈ 2.79 to 8.37 µM) |  |  | > 50 µg/mL |  |
| CCOC(=O)NC(=O)c1ccsc1NC(=O)c1ccnc(-n2cnnn2)c1 [Compound 12] | 1 to 3 µg/mL (≈ 2.58 to 7.74 µM) |  |  | > 50 µg/mL |  |
| CCOC(=O)NC(=O)c1ccsc1NC(=O)c1ccnc(NC(C)=O)c1 [Compound 13] | < 1 µg/mL |  |  | > 50 µg/mL |  |
| CCOC(=O)NC(=O)c1ccsc1NC(=O)c1nc2cc(Cl)ccc2s1 [Compound 52] | < 1 µg/mL |  |  | > 50 µg/mL |  |
| CCOC(=O)NC(=O)c1ccsc1NC(=O)c1nc2cc(F)ccc2s1 [Compound 53] | < 1 µg/mL | < 1 µg/mL | < 25 µg/mL | 25 to 50 µg/mL (≈ 63.5 to 127 µM) |  |
| CCOC(=O)NC(=O)c1ccsc1NC(=O)c1ccnc(NC(=O)C(C)(C)C)c1 [Compound 60] | < 1 µg/mL | < 1 µg/mL | > 50 µg/mL | > 50 µg/mL | MIC (Mtb [4]): > 25 µg/mL |
| CCOC(=O)NC(=O)c1ccsc1NC(=O)c1ccnc(NC(=O)OC)c1 [Compound 61] | < 1 µg/mL | 1 to 3 µg/mL (≈ 2.55 to 7.65 µM) | > 50 µg/mL | 25 to 50 µg/mL (≈ 63.7 to 127 µM) | MIC (Mtb [4]): 5 to 25 µg/mL (≈ 12.7 to 63.7 µM) |
| CCOC(=O)NC(=O)c1ccsc1NC(=O)c1nc2ccc(Cl)cc2[nH]1 [Compound 72] | > 3 µg/mL | 1 to 3 µg/mL (≈ 2.55 to 7.64 µM) | > 50 µg/mL | > 50 µg/mL | MIC (Mtb [4]): 5 to 25 µg/mL (≈ 12.7 to 63.6 µM) |
| CCOC(=O)NC(=O)c1ccsc1NC(=O)c1cn2ccccc2n1 [Compound 76] | > 3 µg/mL | 1 to 3 µg/mL (≈ 2.79 to 8.37 µM) | > 50 µg/mL | > 50 µg/mL | MIC (Mtb [4]): < 5 µg/mL |
| CCOC(=O)NC(=O)c1ccsc1NC(=O)c1n[nH]c2ncccc12 [Compound 358] |  |  |  |  | MIC (I) (Mtb [3]): C (key: A: <1 μg/mL; B: 1-3 μg/mL; C: >3 μg/mL); MIC (III) (Mtb [4]): C (key: A: <5 μg/mL; B: 5-25 μg/mL; C: >25 μg/mL); LC50 (IV) (Vero cells): B (key: A: >50 μg/mL; B: 50-25 μg/mL; C: <25 μg/mL) |
| CC(C)OC(=O)NC(=O)c1ccsc1NC(=O)c1n[nH]c2ncccc12 [Compound 359] |  |  |  |  | MIC (I) (Mtb [3]): C (key: A: <1 μg/mL; B: 1-3 μg/mL; C: >3 μg/mL); MIC (III) (Mtb [4]): C (key: A: <5 μg/mL; B: 5-25 μg/mL; C: >25 μg/mL); LC50 (IV) (Vero cells): B (key: A: >50 μg/mL; B: 50-25 μg/mL; C: <25 μg/mL) |
| CCOC(=O)NC(=O)c1ccsc1NC(=O)c1ccc2[nH]nnc2c1 [Compound 363] |  |  |  |  | MIC (I) (Mtb [3]): C (key: A: <1 μg/mL; B: 1-3 μg/mL; C: >3 μg/mL); MIC (III) (Mtb [4]): C (key: A: <5 μg/mL; B: 5-25 μg/mL; C: >25 μg/mL); LC50 (IV) (Vero cells): B (key: A: >50 μg/mL; B: 50-25 μg/mL; C: <25 μg/mL) |
| CC(C)OC(=O)NC(=O)c1ccsc1NC(=O)c1ccc2[nH]nnc2c1 [Compound 364] |  |  |  |  | MIC (I) (Mtb [3]): B (key: A: <1 μg/mL; B: 1-3 μg/mL; C: >3 μg/mL); MIC (III) (Mtb [4]): C (key: A: <5 μg/mL; B: 5-25 μg/mL; C: >25 μg/mL); LC50 (IV) (Vero cells): B (key: A: >50 μg/mL; B: 50-25 μg/mL; C: <25 μg/mL) |
| O=C(Nc1sccc1C(=O)NC(=O)N1CCOCC1)c1nc2ccccc2s1 [Compound 385] |  |  |  |  | MIC (I) (Mtb [3]): C (key: A: <1 μg/mL; B: 1-3 μg/mL; C: >3 μg/mL); MIC (III) (Mtb [4]): C (key: A: <5 μg/mL; B: 5-25 μg/mL; C: >25 μg/mL); LC50 (IV) (Vero cells): C (key: A: >50 μg/mL; B: 50-25 μg/mL; C: <25 μg/mL) |
| CCOC(=O)NC(=O)c1ccsc1NC(=O)c1nc2ccc(NC(=O)CNC(=O)OC(C)(C)C)cc2s1 [Compound 392] |  |  |  |  | MIC (I) (Mtb [3]): B (key: A: <1 μg/mL; B: 1-3 μg/mL; C: >3 μg/mL); MIC (III) (Mtb [4]): C (key: A: <5 μg/mL; B: 5-25 μg/mL; C: >25 μg/mL); LC50 (IV) (Vero cells): B (key: A: >50 μg/mL; B: 50-25 μg/mL; C: <25 μg/mL) |
| NNC(=O)c1ccncc1 [INH, isoniazid] |  |  |  |  | drop in CFU compared with TCA1 [7]: comparable drop in CFU over the first seven days; MIC50 [8]: 0.2 µg/mL (≈ 1.46 µM) |
| CO[C@H]1/C=C/O[C@@]2(C)Oc3c(C)c(O)c4c(O)c(c(/C=N/N5CCN(C)CC5)c(O)c4c3C2=O)NC(=O)/C(C)=C\C=C\[C@H](C)[C@H](O)[C@@H](C)[C@@H](O)[C@@H](C)[C@H](OC(C)=O)[C@@H]1C [RIF, rifampicin] |  |  |  |  | MIC50 [8]: 2.7 µg/mL (≈ 3.28 µM) |

Reference: patent US20160194299A1 (priority 2013, published 2016)
